Laboratory results as given in ChEMBL document CHEMBL1158581, “Synthesis and evaluation of new N6-substituted adenosine-5'-N-methylcarboxamides as A3 adenosine receptor agonists” (Bioorg Med Chem, 2010).
pKi: −log10 of the molar value. Active and inactive are the calls of the source. The rule behind the calls is not given here.

Experiments:
[1] = target: Adenosine receptors; A1 & A3 (Homo sapiens) (UniProt P30542+P0DMS8); assay: Selectivity ratio of Ki for human recombinant adenosine A1 receptor to Ki for human recombinant adenosine A3 receptor
Adenosine receptor A1 = target: T1, Adenosine receptor A1 (Homo sapiens, UniProt P30542); assay: Displacement of [125I]ABA from human recombinant adenosine A1 receptor by rapid filtration technique
T1 sequence (P30542 whole entry): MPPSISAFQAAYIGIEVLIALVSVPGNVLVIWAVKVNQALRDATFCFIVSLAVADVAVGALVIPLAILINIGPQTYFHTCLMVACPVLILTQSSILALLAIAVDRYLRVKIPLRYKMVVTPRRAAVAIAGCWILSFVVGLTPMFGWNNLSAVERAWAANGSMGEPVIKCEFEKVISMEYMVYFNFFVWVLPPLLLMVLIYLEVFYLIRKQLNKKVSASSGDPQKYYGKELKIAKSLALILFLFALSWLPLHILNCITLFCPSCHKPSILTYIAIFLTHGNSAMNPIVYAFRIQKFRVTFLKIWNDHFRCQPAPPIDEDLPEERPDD

Adenosine receptor A2a [2] = target: T2, Adenosine receptor A2a (Homo sapiens, UniProt P29274); assay: Displacement of [3H]ZM241385 from human recombinant adenosine A2A receptor by rapid filtration technique
Adenosine receptor A3 [3] = target: T3, Adenosine receptor A3 (Homo sapiens, UniProt P0DMS8); assay: Displacement of [125I]ABA from human recombinant adenosine A3 receptor by rapid filtration technique
T3 sequence (P0DMS8 whole entry): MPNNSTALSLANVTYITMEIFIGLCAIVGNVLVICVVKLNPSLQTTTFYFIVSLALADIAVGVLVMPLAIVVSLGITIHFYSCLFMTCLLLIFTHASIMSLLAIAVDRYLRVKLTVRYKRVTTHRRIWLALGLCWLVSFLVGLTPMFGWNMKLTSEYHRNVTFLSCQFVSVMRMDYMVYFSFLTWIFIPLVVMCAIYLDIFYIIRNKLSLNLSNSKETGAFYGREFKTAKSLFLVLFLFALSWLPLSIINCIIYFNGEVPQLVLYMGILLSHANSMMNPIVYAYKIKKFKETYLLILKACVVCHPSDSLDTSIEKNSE

H9c2 [4] = assay: Cardioprotective effect against hypoxic simulated ischemia in rat H9c2 cells assessed as reduction in cell death at 100 nM after 12 hrs by propidium iodide staining-based inverted microscopy; type: functional; settings: for inhibition at 0.1 µM: H9c2, 12 h
H9c2 [5] = assay: Cardioprotective effect against hypoxic simulated ischemia in rat H9c2 cells assessed as reduction in cell death at 100 nM after 12 hrs by propidium iodide staining-based inverted microscopy in presence of adenosine A3 receptor antagonist MRS-1191; type: functional
H9c2 [6] = assay: Cardioprotective effect against hypoxic simulated ischemia in rat H9c2 cells assessed as reduction in cell death at 10 nM after 12 hrs by propidium iodide staining-based inverted microscopy; type: functional
Adenosine receptor A2a [7] = target: T2, Adenosine receptor A2a; assay: Displacement of [3H]ZM241385 from human recombinant adenosine A2A receptor at 10 uM by rapid filtration technique
Adenosine receptor A3 [8] = target: T3, Adenosine receptor A3; assay: Binding affinity to adenosine A3 receptor
[9] = Selectivity ratio of Ki for adenosine A1 receptor to Ki for adenosine A3 receptor

T2 sequence (P29274 whole entry): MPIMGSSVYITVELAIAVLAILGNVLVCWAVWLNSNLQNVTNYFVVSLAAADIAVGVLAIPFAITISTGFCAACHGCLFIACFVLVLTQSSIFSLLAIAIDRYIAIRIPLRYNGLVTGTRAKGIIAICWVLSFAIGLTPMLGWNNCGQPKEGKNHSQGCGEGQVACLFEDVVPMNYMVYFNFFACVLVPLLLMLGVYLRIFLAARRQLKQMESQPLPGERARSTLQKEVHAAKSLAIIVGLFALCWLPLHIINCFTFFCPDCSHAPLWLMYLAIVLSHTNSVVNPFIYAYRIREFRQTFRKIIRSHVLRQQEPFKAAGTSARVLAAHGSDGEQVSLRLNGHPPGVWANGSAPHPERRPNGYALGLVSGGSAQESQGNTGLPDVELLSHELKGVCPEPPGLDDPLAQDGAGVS

Compound | Ratio Ki [1] | pKi (Adenosine receptor A1) | pKi (Adenosine receptor A2a [2]) | pKi (Adenosine receptor A3 [3]) | inhibition (Adenosine receptor A2a [7]) [%] | inhibition (H9c2 [4]) | inhibition (H9c2 [5]) | inhibition (H9c2 [6]) | inhibition at 0.1 µM (H9c2 [4]) [%] | pKi (Adenosine receptor A3 [8]) | Ratio Ki [9]
CC1(C)c2ccc(CNC3NC=Nc4c3ncn4[C@@H]3O[C@H](CO)[C@@H](O)[C@H]3O)cc2C(C)(C)N1[O] (stereo partly drawn) | 4.1 | 5.94 | < 5.00 | 6.55 | – | – | – | – | – | – | –
CC1(C)CC(NC2NC=Nc3c2ncn3[C@@H]2O[C@H](CO)[C@@H](O)[C@H]2O)CC(C)(C)N1[O] (stereo partly drawn) | 0.0058 | 7.30 | < 5.00 | 5.07 | – | – | – | – | – | – | –
CNC(=O)[C@H]1O[C@@H](n2cnc3c(NCc4cccc(I)c4)ncnc32)[C@H](O)[C@@H]1O [IB-MECA] | – | – | – | – | – | Active | inactive | inactive | 54.1 | – | –
CNC(=O)[C@H]1O[C@@H](n2cnc3c(NCC4CC(C)(C)N([O])C4(C)C)ncnc32)[C@H](O)[C@@H]1O (stereo partly drawn) | 0.56 | 6.24 | < 5.00 | 5.99 | – | – | – | – | – | – | –
CNC(=O)[C@H]1O[C@@H](n2cnc3c(Nc4ccc(CCNC(=O)c5ccc6c(c5)C(C)(C)N([O])C6(C)C)cc4)ncnc32)[C@H](O)[C@@H]1O | 2.1 | 7.27 | < 5.00 | 7.60 | – | – | – | – | – | – | –
CNC(=O)[C@H]1O[C@@H](n2cnc3c(NC4CC(C)(C)NC(C)(C)C4)ncnc32)[C@H](O)[C@@H]1O | 0.39 | 6.02 | < 5.00 | 5.61 | – | – | – | – | – | – | –
CC(C)(C)c1cc(CCNc2ncnc3c2ncn3[C@@H]2O[C@H](CO)[C@@H](O)[C@H]2O)cc(C(C)(C)C)c1O | 5 | 6.82 | – | 7.52 | 20 | – | – | – | – | – | –
CNC(=O)[C@H]1O[C@@H](n2cnc3c(NC4CC(C)(C)N([O])C(C)(C)C4)ncnc32)[C@H](O)[C@@H]1O | 0.45 | 5.72 | < 5.00 | 5.38 | – | – | – | – | – | – | –
CNC(=O)[C@H]1O[C@@H](n2cnc3c(NCc4ccc5c(c4)C(C)(C)N([O])C5(C)C)ncnc32)[C@H](O)[C@@H]1O | 4 | 5.89 | < 5.00 | 6.49 | – | – | – | – | – | – | –
CNC(=O)[C@H]1O[C@@H](n2cnc3c(Nc4ccc5c(c4)C(C)(C)N([O])C5(C)C)ncnc32)[C@H](O)[C@@H]1O | 1.5 | 6.10 | < 5.00 | 6.28 | – | – | – | – | – | – | –
CC1(C)c2ccc(C(=O)NCCc3ccc(Nc4ncnc5c4ncn5[C@@H]4O[C@H](CO)[C@@H](O)[C@H]4O)cc3)cc2C(C)(C)N1[O] | – | – | – | – | – | – | – | – | – | 8.15 | 3
CC1(C)NC(C)(C)c2cc(Nc3ncnc4c3ncn4[C@@H]3O[C@H](CO)[C@@H](O)[C@H]3O)ccc21 | 1 | 6.54 | < 5.00 | 6.55 | – | – | – | – | – | – | –
CC1(C)CC(CNc2ncnc3c2ncn3[C@@H]2O[C@H](CO)[C@@H](O)[C@H]2O)C(C)(C)N1[O] (stereo partly drawn) | 0.0024 | – | < 5.00 | – | – | – | – | – | – | 7.30 | 400
CC1(C)CC(NC2NC=Nc3c2ncn3[C@@H]2O[C@H](CO)[C@@H](O)[C@H]2O)CC(C)(C)N1 (stereo partly drawn) | 0.063 | – | – | – | – | – | – | – | – | – | –
CC1(C)c2ccc(NC3NC=Nc4c3ncn4[C@@H]3O[C@H](CO)[C@@H](O)[C@H]3O)cc2C(C)(C)N1[O] (stereo partly drawn) | – | – | < 5.00 | – | – | – | – | – | – | – | –

The next lines start with results.

Ratio Ki [1] | pKi (Adenosine receptor A1) | pKi (Adenosine receptor A2a [2]) | pKi (Adenosine receptor A3 [3]) | inhibition (Adenosine receptor A2a [7]) [%] | Compound | inhibition (H9c2 [4]) | inhibition (H9c2 [5]) | inhibition (H9c2 [6]) | inhibition at 0.1 µM (H9c2 [4]) [%] | pKi (Adenosine receptor A3 [8]) | Ratio Ki [9]
19 | 6.98 | < 5.00 | 8.25 | – | CNC(=O)[C@H]1O[C@@H](n2cnc3c(NCc4ccc(CNC(=O)c5cc(C(C)(C)C)c(O)c(C(C)(C)C)c5)cc4)ncnc32)[C@H](O)[C@@H]1O | Active | inactive | inactive | – | – | –
19 | 7.38 | < 5.00 | 8.65 | – | CNC(=O)[C@H]1O[C@@H](n2cnc3c(NCc4ccc(NC(=O)CCC(=O)NCCc5cc(C(C)(C)C)c(O)c(C(C)(C)C)c5)cc4)ncnc32)[C@H](O)[C@@H]1O | – | – | – | – | – | –
109 | 6.61 | < 5.00 | 8.65 | – | CNC(=O)[C@H]1O[C@@H](n2cnc3c(Nc4ccc(CCNC(=O)c5cc(C(C)(C)C)cc(C(C)(C)C)c5)cc4)ncnc32)[C@H](O)[C@@H]1O | Active | inactive | inactive | – | – | –
14 | 6.89 | < 5.00 | 8.04 | – | CNC(=O)[C@H]1O[C@@H](n2cnc3c(NCc4ccc(CNC(=O)c5cc(C(C)(C)C)cc(C(C)(C)C)c5)cc4)ncnc32)[C@H](O)[C@@H]1O | – | inactive | inactive | 68.3 | – | –
16 | 5.93 | < 5.00 | 7.15 | – | CNC(=O)[C@H]1O[C@@H](n2cnc3c(Nc4ccc5c(c4)C(C)(C)NC5(C)C)ncnc32)[C@H](O)[C@@H]1O | – | – | – | – | – | –
69 | 6.21 | < 5.00 | 8.05 | – | CNC(=O)[C@H]1O[C@@H](n2cnc3c(NCCc4cc(C(C)(C)C)c(O)c(C(C)(C)C)c4)ncnc32)[C@H](O)[C@@H]1O | – | – | – | – | – | –
15 | 7.11 | < 5.00 | 8.30 | – | CNC(=O)[C@H]1O[C@@H](n2cnc3c(NCc4ccc(CNC(=O)c5cc(OC)c(OC)c(OC)c5)cc4)ncnc32)[C@H](O)[C@@H]1O | Active | inactive | inactive | – | – | –
6.2 | 7.58 | – | 8.37 | 27 | CNC(=O)[C@H]1O[C@@H](n2cnc3c(Nc4ccc(CCNC(=O)c5cc(OC)c(OC)c(OC)c5)cc4)ncnc32)[C@H](O)[C@@H]1O | Active | inactive | inactive | – | – | –
5.4 | 6.61 | < 5.00 | 7.35 | – | CNC(=O)[C@H]1O[C@@H](n2cnc3c(Nc4ccc(CCNC(=O)c5cc(C(C)(C)C)c(O)c(C(C)(C)C)c5)cc4)ncnc32)[C@H](O)[C@@H]1O | – | – | – | – | – | –
